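Method: 48-hour compound exposure of cells in 96-well plates, five concentrations, linear interpolation of endpoints. GI50 = concentration required for 50% inhibition of growth.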 The source made the active and inactive calls. Rule as the data show it: active = GI50 up to about 1.1 µM and inactive = higher.

Common to all, as to assay: NCI-60 cell line screen, 48 h
Experiment [1] deals with 786-0.
For experiment [2], the system named is A498.
Experiment [3] deals with ACHN.
The test system of experiment [4] is MCF7.
Experiment [5] deals with MDA-MB-231.
The subject of experiment [6] is MDA-N.
In experiment [7] the test system is MOLT-4.
In experiment [8] the test system is Malme-3M.
Experiment [9] deals with NCI-H226.
The test system of experiment [10] is NCI-H460.
Experiment [11] has as its system OVCAR-8.
The subject of experiment [12] is PC-3.
The test system of experiment [13] is SF-539.
Experiment [14] relates to SK-MEL-28.
Experiment [15] deals with SK-OV-3.
In experiment [16] the test system is SNB-75.
Experiment [17] has as its system CAKI-1.
The subject of experiment [18] is HCC 2998.

`N/C(=N\c1ccc(Cl)cc1)NS(=O)(=O)c1c(C(F)(F)F)cccc1C(F)(F)F`: the GI50 in experiment [1] was 24.8 µM (inactive); in experiment [2], 17.8 µM (inactive); in experiment [3] it was 14.5 µM (inactive); in experiment [4] it was 15.6 µM (inactive); in experiment [5], 22.2 µM (inactive); in experiment [6], 22.2 µM (inactive). Moreover, the GI50 in [7] was > 100 µM (inactive); in experiment [8], 17.4 µM (inactive); in experiment [9] it was 27.6 µM (inactive); in experiment [10], 14.5 µM (inactive); in experiment [11] it was 20.7 µM (inactive); in experiment [12] it was 5.45 µM (inactive). Besides, the GI50 was 41.3 µM (inactive) in experiment [13], 62.5 µM (inactive) in experiment [14], 35.2 µM (inactive) in experiment [15] and 41.8 µM (inactive) in experiment [16].
Regarding `Cn1c2ccccc2c(=O)c2c(O)cc3c(c21)C1OCC(C)(O)C1O3` (configuration not stated), the GI50 is 39.2 µM (inactive) in experiment [1]; 67.8 µM (inactive) in [3]; 30.7 µM (inactive) in experiment [17]; > 100 µM (inactive) in [18]; 51.5 µM (inactive) in experiment [4]; > 100 µM (inactive) in experiment [5]. Further, the GI50 is > 100 µM (inactive) in experiment [6]; 28.2 µM (inactive) in experiment [7]; 10.5 µM (inactive) in experiment [9]; > 10 µM (inactive) in [10]; 34 µM (inactive) in [11]; 44.7 µM (inactive) in experiment [12]. Besides, the GI50 in [13] was 21.6 µM (inactive); in experiment [14], 83.9 µM (inactive); in [15], 37.2 µM (inactive); in experiment [16] it was 22.9 µM (inactive).
`N#CC(C#N)=Cc1c[nH]c(=O)[nH]c1=O`: the GI50 in experiment [1], in experiment [2], in [3], in experiment [17], in experiment [4] and in [5] was > 100 µM (inactive) each time. The GI50 was > 100 µM (inactive) in [6]; 43.1 µM (inactive) in [7]; 6.35 µM (inactive) in [8]; > 100 µM (inactive) in [9]; > 100 µM (inactive) in [10]; > 100 µM (inactive) in experiment [11]. Further, the GI50 in experiment [12], in [13], in experiment [14], in experiment [15] and in experiment [16] was > 100 µM (inactive) in each case.
Regarding `Cc1nc2sc(CCl)nn2c(=O)c1Cl`, the GI50 was 10.6 µM (inactive) in [1]; 15.7 µM (inactive) in [3]; 11.2 µM (inactive) in [17]; 22 µM (inactive) in [18]; 4.58 µM (inactive) in experiment [4]; 20.5 µM (inactive) in experiment [5]. In addition, the GI50 is 11.4 µM (inactive) in experiment [6]; 6.03 µM (inactive) in [7]; 11.2 µM (inactive) in experiment [8]; 14.9 µM (inactive) in experiment [9]; 10.6 µM (inactive) in experiment [10]; 14 µM (inactive) in [11]. Also, the GI50 in experiment [12] was 12.3 µM (inactive); in [13] it was 16.7 µM (inactive); in experiment [14], 12.8 µM (inactive); in experiment [15], 14.6 µM (inactive); in experiment [16], 10.9 µM (inactive).
In the case of `C#CCNC(Cc1c[nH]cn1)C(=O)O` (configuration not stated), the GI50 in [1], in experiment [2], in experiment [3], in experiment [17], in experiment [4] and in [5] was > 100 µM (inactive) each time. For the same molecule, the GI50 in [6], in [7], in experiment [8], in experiment [9], in [10] and in experiment [11] was > 100 µM (inactive) throughout. The GI50 in experiment [12], in [13], in experiment [14], in experiment [15] and in experiment [16] was > 100 µM (inactive) in each case.
On to `Cc1nc(C(N)=S)sc1C(=O)CC(=O)C(=O)Nc1ccc(Br)cc1`, for which the GI50 in experiment [1], in experiment [2], in [3], in experiment [17], in experiment [4] and in experiment [5] was > 100 µM (inactive) throughout. Further, the GI50 in experiment [6], in experiment [8], in experiment [9], in experiment [10], in [11] and in experiment [12] was > 100 µM (inactive) each time. The GI50 in experiment [13], in experiment [14], in experiment [15] and in experiment [16] was > 100 µM (inactive) throughout.
Take `COCCCNc1c2ccccc2nc2ccccc12`: the GI50 in experiment [1] is 3.57 µM (inactive); in experiment [2], 3.97 µM (inactive); in experiment [3] it was 0.813 µM (active); in experiment [17], 1.39 µM (inactive); in experiment [18], 1.56 µM (inactive); in experiment [4], 2.34 µM (inactive). In addition, the GI50 in [5] was 3.25 µM (inactive); in experiment [6] it was 3.09 µM (inactive); in experiment [7], 3.57 µM (inactive); in experiment [8], 1.87 µM (inactive); in [10], 1.54 µM (inactive); in experiment [11], 2.68 µM (inactive). The GI50 in experiment [12] is 2.01 µM (inactive); in experiment [13] it was 2.26 µM (inactive); in experiment [14], 2.44 µM (inactive); in experiment [15] it was 2.78 µM (inactive).
For the molecule `C[C@]12C[C@H](O)[C@H]3[C@@H](CCC4=CC(=O)CC[C@@]43C)[C@@H]1CC[C@@H]2c1csc(-c2ccccc2)n1`, the GI50 in experiment [1] was 25.2 µM (inactive); in experiment [2] it was > 39 µM (inactive); in experiment [3], > 50.6 µM (inactive); in [17] it was 38.4 µM (inactive); in [4], > 23 µM (inactive); in experiment [5], 20.1 µM (inactive). The GI50 in experiment [6] is > 80.7 µM (inactive); in [7], 0.625 µM (active); in [8], > 44.2 µM (inactive); in experiment [9] it was > 58.1 µM (inactive); in experiment [10], 5.85 µM (inactive); in experiment [11] it was 35.8 µM (inactive). Further, the GI50 in experiment [12] was 3.32 µM (inactive); in experiment [13], 62.5 µM (inactive); in [14], > 100 µM (inactive); in [15], 27.5 µM (inactive); in experiment [16] it was 26.4 µM (inactive).
As for `Fc1c(F)c(C(F)(F)F)c(F)c(F)c1N/N=C\c1c[nH]c2ccccc12`, the GI50 in experiment [1] is 3.44 µM (inactive); in experiment [2], 3.44 µM (inactive); in [3] it was 6.64 µM (inactive); in experiment [17], 2.55 µM (inactive); in experiment [18], 1.85 µM (inactive); in experiment [4] it was 2.69 µM (inactive). Also, the GI50 was 3.03 µM (inactive) in experiment [5]; 1.72 µM (inactive) in [6]; 2.19 µM (inactive) in experiment [7]; 3.92 µM (inactive) in experiment [8]; 1.86 µM (inactive) in experiment [10]; 6.43 µM (inactive) in experiment [11]. The GI50 in [12] was 2.13 µM (inactive); in experiment [14] it was 6.82 µM (inactive); in experiment [15], 1.39 µM (inactive); in experiment [16] it was 1.27 µM (inactive).
With `O=C1/C(=C\c2ccc(Cl)cc2Cl)Sc2scc(-c3ccc(O)c(O)c3)[n+]21`, the GI50 is 15.7 µM (inactive) in experiment [1]; 18.8 µM (inactive) in experiment [3]; 20.1 µM (inactive) in experiment [17]; 17 µM (inactive) in experiment [18]; 16.2 µM (inactive) in experiment [4]; 16.5 µM (inactive) in experiment [5]. The GI50 in [6] was 17.5 µM (inactive); in experiment [7], 9.64 µM (inactive); in [9], 15.5 µM (inactive); in experiment [10], 16 µM (inactive); in experiment [11] it was 17.2 µM (inactive); in experiment [12], 13.7 µM (inactive). Further, the GI50 is 17.1 µM (inactive) in experiment [13], 15.9 µM (inactive) in [14], 15.8 µM (inactive) in [15] and 21.8 µM (inactive) in experiment [16].
With `N#Cc1nc(Cc2cccs2)oc1N`, the GI50 in experiment [1], in [2], in [3], in experiment [17], in experiment [4] and in [5] was > 100 µM (inactive) each time. Also, the GI50 in experiment [6], in experiment [7], in [11], in experiment [12], in experiment [14] and in experiment [15] was > 100 µM (inactive) throughout. Also, the GI50 in experiment [16] is > 100 µM (inactive).
In the case of `N/N=C1/C2CN3CCN(C2)CC1(c1ccc([N+](=O)[O-])cc1)C3`, the GI50 in experiment [1], in experiment [2], in experiment [3], in experiment [17], in experiment [4] and in [5] was > 100 µM (inactive) throughout. For the same molecule, the GI50 in [6], in experiment [7], in experiment [8], in experiment [9], in experiment [11] and in experiment [12] was > 100 µM (inactive) throughout. The GI50 in experiment [13], in experiment [14] and in experiment [16] was > 100 µM (inactive) each time.
